Experimental findings from ChEMBL document CHEMBL2029328, “Identification and structure-activity relationships of a novel series of estrogen receptor ligands based on 7-thiabicyclo[2.2.1]hept-2-ene-7-oxide” (J Med Chem, 2012) are described below.

One experiment concerns the target T1, Estrogen receptor (Homo sapiens, UniProt P03372).
T1 sequence (P03372 whole entry): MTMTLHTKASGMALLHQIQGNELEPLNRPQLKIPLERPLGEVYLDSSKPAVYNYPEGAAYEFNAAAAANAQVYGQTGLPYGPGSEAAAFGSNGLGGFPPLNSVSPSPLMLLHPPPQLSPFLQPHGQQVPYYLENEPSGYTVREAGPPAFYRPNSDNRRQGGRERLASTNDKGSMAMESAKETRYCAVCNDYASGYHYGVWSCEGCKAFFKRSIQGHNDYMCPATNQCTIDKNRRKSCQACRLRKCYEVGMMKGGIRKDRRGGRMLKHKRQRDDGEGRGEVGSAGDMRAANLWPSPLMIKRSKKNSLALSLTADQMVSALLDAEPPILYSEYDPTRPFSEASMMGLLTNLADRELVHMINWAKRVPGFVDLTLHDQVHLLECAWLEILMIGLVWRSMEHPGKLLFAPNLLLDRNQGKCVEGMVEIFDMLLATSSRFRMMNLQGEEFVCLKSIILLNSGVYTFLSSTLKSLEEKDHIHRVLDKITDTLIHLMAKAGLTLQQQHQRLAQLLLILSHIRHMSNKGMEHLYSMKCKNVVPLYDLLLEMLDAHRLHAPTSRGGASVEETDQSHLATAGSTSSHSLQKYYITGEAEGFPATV

Experiment [1] addresses T2, Estrogen receptor beta (Homo sapiens, UniProt Q92731). Description: Displacement of [3H]estradiol from human ERbeta after 18 to 24 hrs. For orientation: Displacement assays read how much labelled ligand stays bound in the presence of the test substance.
Experiment [2] concerns the target T3, Estrogen receptor (Homo sapiens) (UniProt P03372).
T3 sequence (whole entry): T1 sequence (P03372 whole entry)
Description: Agonist activity at human ERalpha expressed in HepG2 cells up to 10^-5 M after 24 hrs by luciferase reporter gene assay relative to E2. The experiment is classed as functional, cell-based.

Experiment [3] deals with T2, Estrogen receptor beta. Description: Agonist activity at human ERbeta expressed in HepG2 cells up to 10^-5 M after 24 hrs by luciferase reporter gene assay relative to E2. The experiment is classed as functional, cell-based. On the technique in general: Reporter assays use an easily measured gene product as a stand-in for the process of interest.
The target in experiment [4] is T3, Estrogen receptor (Homo sapiens). Description: Displacement of [3H]estradiol from human ERalpha after 18 to 24 hrs.

T2 sequence (Q92731 whole entry): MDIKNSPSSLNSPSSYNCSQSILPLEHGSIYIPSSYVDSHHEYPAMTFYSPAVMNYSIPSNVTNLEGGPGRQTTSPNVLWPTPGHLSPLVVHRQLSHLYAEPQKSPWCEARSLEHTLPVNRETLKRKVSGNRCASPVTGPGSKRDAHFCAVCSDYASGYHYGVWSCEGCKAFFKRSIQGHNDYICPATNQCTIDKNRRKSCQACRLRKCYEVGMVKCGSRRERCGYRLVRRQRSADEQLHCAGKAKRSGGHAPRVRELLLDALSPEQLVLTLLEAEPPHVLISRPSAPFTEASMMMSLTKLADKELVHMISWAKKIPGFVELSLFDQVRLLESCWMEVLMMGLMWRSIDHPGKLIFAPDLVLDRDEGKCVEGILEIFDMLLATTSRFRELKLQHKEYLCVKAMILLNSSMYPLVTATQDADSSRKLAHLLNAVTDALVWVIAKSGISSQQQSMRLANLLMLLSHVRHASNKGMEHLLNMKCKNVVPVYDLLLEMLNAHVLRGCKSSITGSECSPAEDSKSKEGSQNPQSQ

At Estrogen receptor, `Cc1cc(C2=C(c3ccc(O)c(C)c3)[C@H]3[C@@H](S(=O)(=O)Oc4ccccc4F)C[C@@H]2[S+]3[O-])ccc1O` (relative stereo) yielded an EC50 of 1300 nM. At Estrogen receptor beta [1], this compound had an RBA of 0.01%. For the same compound, the figures for the Activity (in experiment [2]; on Estrogen receptor beta [3]) were 55% and 0%, respectively.

For the compound `Cc1cc(C2=C(c3ccc(O)c(C)c3)[C@H]3[C@@H](S(=O)(=O)Oc4ccccc4Br)C[C@@H]2[S+]3[O-])ccc1O` (relative stereo), the values for the RBA (in experiment [4]; on Estrogen receptor beta [1]) were 0.516% and 0.014%, respectively. Besides, the EC50 on Estrogen receptor was found to be 1200 nM. The Activity in experiment [2] turned out to be 51%; on Estrogen receptor beta [3], 0%.

Take `Cc1cc(C2=C(c3ccc(O)c(C)c3)[C@H]3[C@@H](S(=O)(=O)Oc4ccccc4Cl)C[C@@H]2[S+]3[O-])ccc1O` (relative stereo): the RBA in experiment [4] is 1.18%; on Estrogen receptor beta [1], 0.022%. The EC50 at Estrogen receptor was 2000 nM. In addition, the results for the Activity (in experiment [2]; at Estrogen receptor beta [3]) were 72% and 0%, respectively.

`COc1ccc(OS(=O)(=O)[C@H]2C[C@H]3C(c4ccc(O)cc4C)=C(c4ccc(O)cc4C)[C@@H]2[S+]3[O-])cc1` (relative stereo): the RBA in experiment [4] came to 0.741%; on Estrogen receptor beta [1] it was 0.091%. On Estrogen receptor, this compound showed an EC50 of 210 nM. The results for the Activity (in experiment [2]; on Estrogen receptor beta [3]) were 76% and 32%, respectively.

On to `COc1ccc(OS(=O)(=O)[C@H]2C[C@H]3C(c4ccc(O)cc4)=C(c4ccc(O)cc4)[C@@H]2[S+]3[O-])cc1` (relative stereo), for which the RBA in experiment [4] stood at 0.074%; at Estrogen receptor beta [1] it was 0.08%. Moreover, the Activity in experiment [2] was 48%; at Estrogen receptor beta [3], 19%.

As for `Cc1cc(O)ccc1C1=C(c2ccc(O)cc2C)[C@H]2[C@@H](S(=O)(=O)Oc3ccc(Br)cc3)C[C@@H]1[S+]2[O-]` (relative stereo), the RBA in experiment [4] is 3.37%; at Estrogen receptor beta [1], 0.297%. Further, the EC50 on Estrogen receptor was 110 nM. Moreover, the figures for the Activity (in experiment [2]; at Estrogen receptor beta [3]) were 71% and 100%, respectively.

With `Cc1cc(C2=C(c3ccc(O)c(C)c3)[C@H]3[C@@H](S(=O)(=O)Oc4cccc5ccccc45)C[C@@H]2[S+]3[O-])ccc1O` (relative stereo), the RBA in experiment [4] turned out to be 0.236%; at Estrogen receptor beta [1], 0.019%. Besides, a half-maximal response on Estrogen receptor (EC50) required 770 nM. Further, the values for the Activity (in experiment [2]; at Estrogen receptor beta [3]) were 42% and 10%, respectively.

With `Cc1cc(O)ccc1C1=C(c2ccc(O)cc2C)[C@H]2[C@@H](S(=O)(=O)Oc3cccc4ccccc34)C[C@@H]1[S+]2[O-]` (relative stereo), the RBA was 0.998% in experiment [4] and 0.18% at Estrogen receptor beta [1]. The EC50 on Estrogen receptor worked out at 27 nM. The Activity in experiment [2] was found to be 59%; on Estrogen receptor beta [3] it was 83%.

Consider `O=S(=O)(Oc1ccc(O)cc1)[C@H]1C[C@H]2C(c3ccc(O)cc3)=C(c3ccc(O)cc3)[C@@H]1[S+]2[O-]` (relative stereo), for which the RBA was 0.077% in experiment [4] and 0.071% on Estrogen receptor beta [1]. The same compound had an EC50 at Estrogen receptor of 1100 nM. The results for the Activity (in experiment [2]; at Estrogen receptor beta [3]) were 48% and 10%, respectively.

With `Cc1cc(O)ccc1C1=C(c2ccc(O)cc2C)[C@H]2[C@@H](S(=O)(=O)Oc3ccccc3Cl)C[C@@H]1[S+]2[O-]` (relative stereo), the figures for the RBA (in experiment [4]; on Estrogen receptor beta [1]) were 2.49% and 0.227%, respectively. In addition, a half-maximal response on Estrogen receptor (EC50) required 2.8 nM. Further, the Activity in experiment [2] worked out at 73%; on Estrogen receptor beta [3], 46%.

In the case of `O=S(=O)(Oc1ccccc1)[C@H]1C[C@H]2C(c3ccc(O)cc3)=C(c3ccc(O)cc3)[C@@H]1[S+]2[O-]` (relative stereo), the RBA is 0.956% in experiment [4] and 0.11% on Estrogen receptor beta [1]. Also, on Estrogen receptor, the EC50 was determined as 670 nM. For the same compound, the results for the Activity (in experiment [2]; at Estrogen receptor beta [3]) were 85% and 3.4%, respectively.

Turning to `Cc1cc(O)ccc1C1=C(c2ccc(O)cc2C)[C@H]2[C@@H](S(=O)(=O)Oc3ccccc3Br)C[C@@H]1[S+]2[O-]` (relative stereo), the RBA came to 2.21% in experiment [4] and 0.07% on Estrogen receptor beta [1]. On Estrogen receptor, this compound came in with an EC50 of 14 nM. Further, the Activity is 67% in experiment [2] and 21% on Estrogen receptor beta [3].

Take `Cc1cc(O)ccc1C1=C(c2ccc(O)cc2C)[C@H]2[C@@H](S(=O)(=O)Oc3ccc(O)cc3)C[C@@H]1[S+]2[O-]` (relative stereo): the RBA in experiment [4] came to 2.21%; at Estrogen receptor beta [1], 0.812%. This compound returned a half-maximal effective concentration (EC50) at Estrogen receptor of 9.2 nM. For the same compound, the Activity in experiment [2] is 58%; at Estrogen receptor beta [3], 82%.

Take `Cc1cc(O)ccc1C1=C(c2ccc(O)cc2C)[C@H]2[C@@H](S(=O)(=O)Oc3cccc(Cl)c3)C[C@@H]1[S+]2[O-]` (relative stereo): the RBA was determined as 1.3% in experiment [4] and 0.088% on Estrogen receptor beta [1].

On to `CCOC(=O)[C@@H]1[C@H](C(=O)OCC)[C@@H]2C(c3ccc(O)cc3)=C(c3ccc(O)cc3)[C@H]1[S+]2[O-]` (stereo partly drawn), for which the results for the RBA (in experiment [4]; at Estrogen receptor beta [1]) were 0.022% and 0.048%, respectively. Further, the Activity was determined as 55% in experiment [2] and 27% on Estrogen receptor beta [3].

As for `Cc1cc(O)ccc1C1=C(c2ccc(O)cc2C)[C@H]2[C@@H](S(=O)(=O)Oc3ccccc3)C[C@@H]1[S+]2[O-]` (relative stereo), the values for the RBA (in experiment [4]; on Estrogen receptor beta [1]) were 8.11% and 0.348%, respectively. In addition, at Estrogen receptor, a half-maximal response (EC50) required 0.14 nM. Besides, the values for the Activity (in experiment [2]; on Estrogen receptor beta [3]) were 62% and 66%, respectively.

`Cc1cc(O)ccc1C1=C(c2ccc(O)cc2C)[C@H]2[C@@H](S(=O)(=O)Oc3ccc(F)cc3)C[C@@H]1[S+]2[O-]` (relative stereo): the RBA came to 2.18% in experiment [4] and 0.08% on Estrogen receptor beta [1]. Also, the EC50 at Estrogen receptor is 200 nM. For the same compound, the Activity was found to be 74% in experiment [2] and 45% at Estrogen receptor beta [3].

For `Cc1ccc(C2=C(c3ccc(C)cc3)[C@H]3[C@@H](S(=O)(=O)Oc4ccc(O)cc4)C[C@@H]2[S+]3[O-])cc1` (relative stereo), the RBA in experiment [4] was determined as 0.005%; on Estrogen receptor beta [1], 0.011%. This compound also gave an EC50 at Estrogen receptor of 5500 nM. Moreover, the Activity in experiment [2] is 24%; on Estrogen receptor beta [3], 10%.

As for `Cc1cc(O)ccc1C1=C(c2ccc(O)cc2C)[C@H]2[C@@H](S(=O)(=O)Oc3ccccc3F)C[C@@H]1[S+]2[O-]` (relative stereo), the RBA in experiment [4] came to 3.53%; at Estrogen receptor beta [1], 0.138%. The compound further had an EC50 on Estrogen receptor of 2.2 nM. In addition, the Activity in experiment [2] was found to be 56%; on Estrogen receptor beta [3], 54%.

Turning to `Cc1cc(O)ccc1C1=C(c2ccc(O)cc2C)[C@H]2[C@@H](S(=O)(=O)Oc3ccc(Cl)cc3)C[C@@H]1[S+]2[O-]` (relative stereo), the RBA in experiment [4] worked out at 2.13%; on Estrogen receptor beta [1], 0.083%. The same compound returned a concentration giving a half-maximal response (EC50) on Estrogen receptor of 110 nM. Also, the Activity in experiment [2] came out at 67%; at Estrogen receptor beta [3], 50%.

In the case of `Cc1cc(C2=C(c3ccc(O)c(C)c3)[C@H]3[C@@H](S(=O)(=O)Oc4ccc(O)cc4)C[C@@H]2[S+]3[O-])ccc1O` (relative stereo), the values for the RBA (in experiment [4]; at Estrogen receptor beta [1]) were 0.109% and 0.009%, respectively.

As to `O=S(=O)(Oc1ccc(O)cc1)[C@H]1C[C@H]2C(c3ccccc3)=C(c3ccccc3)[C@@H]1[S+]2[O-]` (relative stereo), the RBA in experiment [4] worked out at 0.005%; on Estrogen receptor beta [1], 0.008%. In addition, the Activity in experiment [2] amounted to 22%; on Estrogen receptor beta [3], 0%.

Regarding `O=C1[C@@H]2[C@H](C(=O)N1c1ccccc1)[C@@H]1C(c3ccc(O)cc3)=C(c3ccc(O)cc3)[C@H]2[S+]1[O-]` (mixture of isomers), the figures for the RBA (in experiment [4]; at Estrogen receptor beta [1]) were 0.017% and 0.013%, respectively. This compound displayed an EC50 at Estrogen receptor of 7100 nM. For the same compound, the results for the Activity (in experiment [2]; at Estrogen receptor beta [3]) were 31% and 24%, respectively.

For the compound `Cc1cc(C2=C(c3ccc(O)c(C)c3)[C@H]3[C@@H](S(=O)(=O)Oc4ccccc4)C[C@@H]2[S+]3[O-])ccc1O` (relative stereo), the results for the RBA (in experiment [4]; on Estrogen receptor beta [1]) were 3.49% and 0.014%, respectively. Besides, the EC50 at Estrogen receptor was found to be 12 nM. Moreover, the values for the Activity (in experiment [2]; on Estrogen receptor beta [3]) were 65% and 3.8%, respectively.

On to `CCOC(=O)[C@@H]1[C@H](C(=O)OCC)[C@@H]2C(c3ccc(O)c(C)c3)=C(c3ccc(O)c(C)c3)[C@H]1[S+]2[O-]` (stereo partly drawn), for which the RBA in experiment [4] was determined as 0.026%; at Estrogen receptor beta [1], 0.019%. Besides, the Activity is 22% in experiment [2] and 3.6% at Estrogen receptor beta [3].

As to `Cc1cc(C2=C(c3ccc(O)c(C)c3)[C@H]3[C@H]4C(=O)N(c5ccccc5)C(=O)[C@H]4[C@@H]2[S+]3[O-])ccc1O` (mixture of isomers), the values for the RBA (in experiment [4]; on Estrogen receptor beta [1]) were 0.009% and 0.007%, respectively. The Activity was 29% in experiment [2] and 3.4% on Estrogen receptor beta [3].

Turning to `COc1ccc(OS(=O)(=O)[C@H]2C[C@H]3C(c4ccc(O)c(C)c4)=C(c4ccc(O)c(C)c4)[C@@H]2[S+]3[O-])cc1` (relative stereo), the RBA was found to be 0.31% in experiment [4] and 0.021% at Estrogen receptor beta [1]. Also, on Estrogen receptor, it took 11000 nM to reach a half-maximal effect (EC50). Also, the results for the Activity (in experiment [2]; on Estrogen receptor beta [3]) were 57% and 9.8%, respectively.

The EC50 is the concentration that produces a half-maximal response.
